The source of these data is patent US12258338B2, “Modulators of the integrated stress response pathway” (EVOTEC INTERNATIONAL GMBH, priority 2019, dated 2025).

Structures are written as SMILES.

One assay has as its system ATF4. As to the kind of experiment: HEK-ATF4 High Content Imaging assay (prevention of Tunicamycin induced ISR; ATF4 signal ratio between nucleus and cytoplasm). It counts as cell-based. The settings on record: Homo sapiens; Wild-type HEK293 cells, Tunicamycin induced ISR, 6 h; read-out: IIEK-ATF4 Activity. In outline:
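Wild-type HEK293 cells in 0.3% FBS medium were co-treated with compounds and Tunicamycin (3.3 μM in prediluted medium, 11-fold over final) for 6 h at 37 °C. Fixed cells were immunostained for ATF4 with Hoechst nuclei; imaging gave nuclear/cytoplasmic ATF4 ratio, with nuclei counts as toxicity control.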

Assay [1] deals with T1, human ERG potassium channel (hERG) (Homo sapiens, UniProt Q12809).
T1 construct: expressed in transfected cells; host or cells: HEK293, stably transfected, tetracycline-inducible promoter
As to the kind of experiment: hERG channel tail current recording using in vitro Rapid ICE (automated patch-clamp, QPatch HTX). Type of assay: cell-based. The following applies: Table 26. How it is done:
Protocol—Measure of the Effect on hERG Channel by Tail Current Recording Using In Vitro Rapid ICE
The potency of the example compounds in inhibiting human ERG potassium channel (hERG) tail current was assessed in a recombinant HEK293 cell line stably transfected with hERG cDNA under an inducible promoter, using Rapid ICE (rapid ion channel electrophysiology) assay. Rapid ICE is an automated patch-clamp assay utilizing the QPatch HTX system (Sophion Bioscience A/S). Briefly, inducible HEK hERG cells were cultivated in minimum essential medium supplemented with 10% FBS, 1% non-essential amino acids, 1% sodium pyruvate, 2 mM 1-glutamine, 15 μg/mL blasticidin, and 100 μg/mL hygromycin. hERG channel expression induction was obtained by adding 10 μg/mL tetracycline for 24, 48, or 72 h before recordings.
On the day of the experiment, cells were detached with TrypLE and prepared to be loaded on the instrument. Cells were resuspended in 7 mL of Serum-Free Media containing 25 mM Hepes and soybean trypsin inhibitor and immediately placed in the cell storage tank of the machine. The composition of the extracellular buffer was (mM): NaCl 137, KCl 4, CaCl2 1.8, MgCl2 1.0, d-glucose 10, N-2-hydroxyethylpiperazine-N′-2-ethanesulfonic acid (HEPES) 10, pH 7.4 with 1 M NaOH. The composition of the intracellular solution was (mM): KCl 130, MgCl2 1.0, ethylene glycol-bis(β-aminoethyl ether)-N,N,N′,N′-tetraacetic acid (EGTA) 5, MgATP 5, HEPES 10, pH 7.2 with 1 M KOH. The voltage protocol included the following steps: step from −80 to −50 mV for 200 ms, +20 mV for 4.8 s, step to −50 mV for 5 s, then step to the holding potential of −80 mV. Compounds were dissolved in DMSO and diluted in extracellular buffer to achieve final test concentrations (0.3, 3, and 30 μM) in 0.3% DMSO. The voltage protocol was run and recorded continuously during the experiment. The vehicle, corresponding to 0.3% DMSO in extracellular buffer was then applied for 3 min, followed by the test substance in triplicate. The standard combined exposure time was 5 min. The average of tail current amplitude values recorded from four sequential voltage pulses was used to calculate for each cell the effect of the test substance by calculating the residual current (% control) compared with vehicle pretreatment. Data were reported as % inhibition for each concentration tested, and IC50 values were estimated using QPatch software. At least two cells were tested, and even more if results diverged.
A general note: The hERG channel carries a current that helps repolarise heart muscle cells.

T1 sequence (Q12809 whole entry): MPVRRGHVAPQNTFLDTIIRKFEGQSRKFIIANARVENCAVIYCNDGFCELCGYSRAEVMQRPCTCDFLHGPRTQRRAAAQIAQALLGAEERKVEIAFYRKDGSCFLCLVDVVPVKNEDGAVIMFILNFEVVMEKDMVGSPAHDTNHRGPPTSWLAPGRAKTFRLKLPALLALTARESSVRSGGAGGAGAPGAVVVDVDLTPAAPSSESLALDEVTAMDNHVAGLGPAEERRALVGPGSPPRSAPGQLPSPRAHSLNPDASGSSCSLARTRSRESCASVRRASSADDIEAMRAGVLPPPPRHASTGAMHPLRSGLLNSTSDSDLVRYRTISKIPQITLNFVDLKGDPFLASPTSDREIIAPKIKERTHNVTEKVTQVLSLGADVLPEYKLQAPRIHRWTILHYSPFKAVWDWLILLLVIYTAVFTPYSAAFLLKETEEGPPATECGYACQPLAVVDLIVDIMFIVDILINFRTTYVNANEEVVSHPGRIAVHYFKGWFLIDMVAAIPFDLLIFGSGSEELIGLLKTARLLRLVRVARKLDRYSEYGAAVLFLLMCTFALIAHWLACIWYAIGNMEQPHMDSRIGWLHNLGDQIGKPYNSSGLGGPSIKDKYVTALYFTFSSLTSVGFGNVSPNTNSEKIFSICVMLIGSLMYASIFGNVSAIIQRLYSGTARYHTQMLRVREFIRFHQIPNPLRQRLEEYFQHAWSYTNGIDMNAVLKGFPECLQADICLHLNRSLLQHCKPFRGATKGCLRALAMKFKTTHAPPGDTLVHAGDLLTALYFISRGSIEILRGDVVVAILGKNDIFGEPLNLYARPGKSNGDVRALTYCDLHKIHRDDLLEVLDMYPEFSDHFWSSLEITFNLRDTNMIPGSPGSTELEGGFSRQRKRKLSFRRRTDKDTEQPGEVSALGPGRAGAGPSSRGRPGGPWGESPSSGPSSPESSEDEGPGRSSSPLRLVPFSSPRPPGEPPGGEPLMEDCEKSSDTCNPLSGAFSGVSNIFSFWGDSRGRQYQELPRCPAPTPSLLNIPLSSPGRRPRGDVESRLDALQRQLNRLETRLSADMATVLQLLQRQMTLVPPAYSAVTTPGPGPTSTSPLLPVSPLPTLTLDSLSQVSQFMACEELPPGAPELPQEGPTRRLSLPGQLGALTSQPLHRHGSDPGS

Consider `COCCCOc1nnc([C@H]2CC[C@H](NC(=O)COc3ccc(Cl)c(F)c3)CN2)o1` [Example 79, 2-(4-chloro-3-fluorophenoxy)-N-[(3S,6R)-6-[5-(3-methoxypropoxy)-1,3,4-oxadiazol-2-yl]piperidin-3-yl]acetamide], for which the IC50 in the assay on ATF4 is 2000 to 15000 nM; in assay [1] it was > 5000 nM.

As to `O=C(COc1ccc(Cl)c(F)c1)N[C@@H]1CC[C@@H](c2nnc(-c3ccc(Cl)cc3)o2)NC1=O` (single isomer, unassigned) [Example 109], the IC50 in the assay with ATF4 fell in the range of 1 to 500 nM; in assay [1] it was 1 to 1000 nM.

As to `O=C(COc1ccc(Cl)c(F)c1)N[C@H]1CC[C@H](c2nnc([C@H]3C[C@@H](OC4CC4)C3)o2)NC1` (single isomer, unassigned) [Example 105], the IC50 is 500 to 2000 nM with ATF4 and > 5000 nM in assay [1].

As to `O=C(COc1ccc(Cl)c(F)c1)N[C@H]1CC[C@H](c2nnc(OCCC3CC3)o2)NC1` [Example 69, 2-(4-chloro-3-fluorophenoxy)-N-[(3S,6R)-6-[5-(2-cyclopropylethoxy)-1,3,4-oxadiazol-2-yl]piperidin-3-yl]acetamide], the IC50 in the assay with ATF4 lay in the range of 1 to 500 nM; in assay [1], 1 to 1000 nM.

For the compound `O=C(COc1ccc(Cl)c(F)c1)N[C@H]1CC[C@H](c2nnc(OCCC(F)(F)F)o2)NC1` [Example 33, 2-(4-chloro-3-fluorophenoxy)-N-[(3S,6R)-6-[5-(3,3,3-trifluoropropoxy)-1,3,4-oxadiazol-2-yl]piperidin-3-yl]acetamide], the IC50 in the assay with ATF4 lay in the range of 1 to 500 nM; in assay [1], 1000 to 5000 nM.

`O=C(COc1ccc(Cl)c(F)c1)N[C@H]1CC[C@H](c2nnc(-c3ccc(Cl)cc3)o2)NC1=O` (single isomer, unassigned) [Example 108]: the values for the IC50 (in the assay on ATF4; in assay [1]) were 2000 to 15000 nM and 1 to 1000 nM, respectively.

As for `O=C(COc1ccc(Cl)c(F)c1)N[C@@H]1CC[C@@H](c2nnc(OCCOC(F)(F)F)o2)NC1` [Example 83, 2-(4-chloro-3-fluorophenoxy)-N-[(3R,6S)-6-{5-[2-(trifluoromethoxy)ethoxy]-1,3,4-oxadiazol-2-yl}piperidin-3-yl]acetamide], the IC50 in the assay on ATF4 was 1 to 500 nM; in assay [1] it was > 5000 nM.

As for `O=C(COc1ccc(Cl)c(Cl)c1)N[C@H]1CC[C@H](c2nnc(OCCOC3CC3)o2)NC1` [Example 86, N-[(3S,6R)-6-[5-(2-cyclopropoxyethoxy)-1,3,4-oxadiazol-2-yl]piperidin-3-yl]-2-(3,4-dichlorophenoxy)acetamide], the results for the IC50 (in the assay on ATF4; in assay [1]) were 1 to 500 nM and 1000 to 5000 nM, respectively.

In the case of `O=C(COc1cnc(Cl)c(F)c1)N[C@H]1CC[C@H](c2nnc(-c3ccc(Cl)cc3)o2)NC1` [Example 7, 2-[(6-chloro-5-fluoropyridin-3-yl)oxy]-N-[(3S,6R)-6-[5-(4-chlorophenyl)-1,3,4-oxadiazol-2-yl]piperidin-3-yl]acetamide], the IC50 was in the range of 1 to 500 nM in the assay on ATF4 and 1 to 1000 nM in assay [1].

`CN1C[C@@H](NC(=O)COc2ccc(Cl)c(F)c2)CC[C@@H]1c1nnc(-c2ccc(Cl)cc2)o1` [Example 45, 2-(4-chloro-3-fluorophenoxy)-N-[(3S,6R)-6-[5-(4-chlorophenyl)-1,3,4-oxadiazol-2-yl]-1-methylpiperidin-3-yl]acetamide]: the results for the IC50 (with ATF4; in assay [1]) were 1 to 500 nM and 1 to 1000 nM, respectively.

For `O=C(COc1ccc(Cl)c(F)c1)N[C@H]1CC[C@H](c2nnc(CCCOC(F)(F)F)o2)NC1` [Example 55, 2-(4-chloro-3-fluorophenoxy)-N-[(3S,6R)-6-{5-[3-(trifluoromethoxy)propyl]-1,3,4-oxadiazol-2-yl}piperidin-3-yl]acetamide], the IC50 was 1 to 500 nM with ATF4 and > 5000 nM in assay [1].

With `CN(CCOC(F)(F)F)c1nnc([C@H]2CC[C@H](NC(=O)COc3ccc(Cl)c(F)c3)CN2)o1` [Example 94, 2-(4-chloro-3-fluorophenoxy)-N-[(3S,6R)-6-(5-{methyl[2-(trifluoromethoxy)ethyl]amino}-1,3,4-oxadiazol-2-yl)piperidin-3-yl]acetamide], the IC50 is 2000 to 15000 nM in the assay on ATF4 and > 5000 nM in assay [1].

For the compound `O=C(COc1ccc(Cl)c(F)c1)N[C@@H]1CC[C@H](c2nnc([C@H]3C[C@@H](OC(F)(F)F)C3)o2)NC1=O` (racemic) [Example 38, rac-2-(4-chloro-3-fluorophenoxy)-N-[(3R,6R)-2-oxo-6-{5-[(1s,3s)-3-(trifluoromethoxy)cyclobutyl]-1,3,4-oxadiazol-2-yl}piperidin-3-yl]acetamide], the figures for the IC50 (in the assay on ATF4; in assay [1]) were 2000 to 15000 nM and > 5000 nM, respectively.

Take `COc1cc(OCC(=O)N[C@H]2CC[C@H](c3nnc(OCCOC(F)(F)F)o3)NC2)ccc1C(F)(F)F` [Example 15, 2-[3-methoxy-4-(trifluoromethyl)phenoxy]-N-[(3S,6R)-6-{5-[2-(trifluoromethoxy)ethoxy]-1,3,4-oxadiazol-2-yl}piperidin-3-yl]acetamide]: the IC50 in the assay on ATF4 was 1 to 500 nM; in assay [1], > 5000 nM.

For `N#Cc1cc(OCC(=O)N[C@H]2CC[C@H](c3nnc(OCCOC(F)(F)F)o3)NC2)ccc1Cl` [Example 29, 2-(4-chloro-3-cyanophenoxy)-N-[(3S,6R)-6-{5-[2-(trifluoromethoxy)ethoxy]-1,3,4-oxadiazol-2-yl}piperidin-3-yl]acetamide], the IC50 is 500 to 2000 nM with ATF4 and > 5000 nM in assay [1].

Take `O=C(COc1ccc(Cl)c(F)c1)N[C@H]1CC[C@H](c2nnc(-c3ccc(Cl)c(F)c3)o2)NC1` [Example 54, 2-(4-chloro-3-fluorophenoxy)-N-[(3S,6R)-6-[5-(4-chloro-3-fluorophenyl)-1,3,4-oxadiazol-2-yl]piperidin-3-yl]acetamide]: the figures for the IC50 (in the assay with ATF4; in assay [1]) were 1 to 500 nM and 1 to 1000 nM, respectively.

As for `O=C(COc1ccc(Cl)c(F)c1)N[C@H]1CC[C@H](c2nnc(OCC3CC3(F)F)o2)NC1` (stereo partly drawn) [Example 66, 2-(4-chloro-3-fluorophenoxy)-N-[(3S,6R)-6-{5-[(2,2-difluorocyclopropyl)methoxy]-1,3,4-oxadiazol-2-yl}piperidin-3-yl]acetamide], the IC50 in the assay on ATF4 lay in the range of 500 to 2000 nM; in assay [1] it was 1000 to 5000 nM.

Turning to `O=C(COc1ccc(Cl)c(F)c1)N[C@H]1CC[C@H](c2nnc(OCCOC3CC3)o2)NC1` [Example 80, 2-(4-chloro-3-fluorophenoxy)-N-[(3S,6R)-6-[5-(2-cyclopropoxythoxy)-1,3,4-oxadiazol-2-yl]piperidin-3-yl]acetamide], the IC50 was 1 to 500 nM in the assay on ATF4 and > 5000 nM in assay [1].

As to `O=C(COc1ccc(C(F)F)c(Cl)c1)N[C@H]1CC[C@H](c2nnc(OCCOC(F)(F)F)o2)NC1` [Example 113, 2-[3-chloro-4-(difluoromethyl)phenoxy]-N-[(3S,6R)-6-{5-[2-(trifluoromethoxy)ethoxy]-1,3,4-oxadiazol-2-yl}piperidin-3-yl]acetamide], the values for the IC50 (with ATF4; in assay [1]) were 1 to 500 nM and 1000 to 5000 nM, respectively.

With `CC(C)(C)OC(=O)N1C[C@@H](NC(=O)COc2ccc(Cl)c(F)c2)CC[C@@H]1c1nnc(OCCOC(F)(F)F)o1` [Example 76, tert-butyl (2R,5S)-5-[2-(4-chloro-3-fluorophenoxy)acetamido]-2-{5-[2-(trifluoromethoxy)ethoxy]-1,3,4-oxadiazol-2-yl}piperidine-1-carboxylate], the IC50 with ATF4 was 500 to 2000 nM; in assay [1], > 5000 nM.

As to `O=C(COc1ccc(Cl)c(F)c1)N[C@@H]1CC[C@@H](c2nnc(OCCC(F)(F)F)o2)NC1` [Example 42, 2-(4-chloro-3-fluorophenoxy)-N-[(3R,6S)-6-[5-(3,3,3-trifluoropropoxy)-1,3,4-oxadiazol-2-yl]piperidin-3-yl]acetamide], the results for the IC50 (in the assay on ATF4; in assay [1]) were 1 to 500 nM and 1000 to 5000 nM, respectively.
